Assays:
Experiment in all cases: Colony formation (CFU) assay
Format in all cases: cell-based
A2780 = conditions: Homo sapiens; A2780, ovary
Method: (§1) In vitro experiments were conducted using the colony formation unit (CFU) assay on various cell lines. The CFU assay involved first establishing what cell plating density enabled the development of clearly interspersed colonies on a six-well plate when left to grow for around 14 days. […] Media was changed on day 8 containing appropriate concentrations of DMSO, USP1 inhibitor, Niraparib, or Olaparib. At or around day 14 when clearly interspersed colonies were visible in the DMSO treated wells, the cells were fixed and stained using 0.1% crystal violet in 10% ethanol for 20 minutes at room temperature. The plates were imaged then the amount of crystal violet stain in each well was quantified by extracting the crystal violet into 10% acetic acid and the absorbance measured at 565 nm.
(§2) IC50 values were calculated by fitting a two-parameter hill equation to the dose-response measurements. Non-linear-least-squares was used to find parameter values that minimize the squared error of the model fit to measured dose response. Non-linear-least-squares estimation was performed using the minpack.lm R package, version 1.2-1. Bliss synergy scores were calculated using the synergyfinder R package version 1.6.1.

BT474 = conditions: Homo sapiens, BT-474; BT474, breast
Method: as §1, §2

CAOV3 = conditions: Homo sapiens, Caov-3; CAOV3, ovary
Method: as §1, §2

CAPAN2 = conditions: Homo sapiens, Capan-2; CAPAN2, pancreas
Method: as §1, §2

CCK81 = conditions: CCK81, colon
Method: as §1, §2

CFPAC1 = conditions: Homo sapiens, CFPAC-1; CFPAC1, pancreas
Method: as §1, §2

CHAGOK1 = conditions: Homo sapiens, ChaGo-K-1; CHAGOK1, lung
Method: as §1, §2

COV504 = conditions: COV504, ovary
Method: as §1, §2

G292CLONEA141B1 = conditions: G292CLONEA141B1, bone
Method: as §1, §2

HBCx13B = conditions: breast
Method: as §1, §2

HBCx6 = conditions: HBCx6, breast
Method: as §1, §2

HBCx9 = conditions: HBCx9, breast
Method: as §1, §2

HEC151 = conditions: HEC151, endometrial
Method: as §1, §2

HMC18 = conditions: HMC18, breast
Method: as §1, §2

HS934T = conditions: melanoma
Method: as §1, §2

HSC3 = conditions: Homo sapiens, HSC-3; HSC3, head and neck
Method: as §1, §2

JHOS2 = conditions: for IC50: JHOS2, ovary; for activity as single agents: JHOS2, up to 300 nM
Method: as §1, §2

KALS1 = conditions: Homo sapiens, KALS-1; KALS1, nervous system
Method: as §1, §2

OE19 = conditions: Homo sapiens; OE19, esophagus
Method: as §1, §2

OV56 = conditions: OV56, ovary
Method: as §1, §2

OVA2BUR = conditions: ovary
Method: as §1, §2

SCC15 = conditions: Homo sapiens, SCC-15; SCC15, head and neck
Method: as §1, §2

SJSA1 = conditions: Homo sapiens, SJSA-1; SJSA1, bone
Method: as §1, §2

SKMEL24 = conditions: Homo sapiens, SK-MEL-24; SKMEL24, skin
Method: as §1, §2

SNU1076 = conditions: SNU1076, head and neck
Method: as §1, §2

SNU119 = conditions: SNU119, ovary
Method: as §1, §2

SNU407 = conditions: SNU-407; SNU407, colon
Method: as §1, §2

SNU626 = conditions: SNU626, nervous system
Method: as §1, §2

SNU81 = conditions: SNU81, colon
Method: as §1, §2

SUIT2 = conditions: SUIT-2; SUIT2, pancreas
Method: as §1, §2

SUM149PT = conditions: Homo sapiens, breast
Method: as §1, §2

SW948 = conditions: Homo sapiens; SW948, colon
Method: as §1, §2

T174 = conditions: T174, breast
Method: as §1, §2

TCCSUP = conditions: Homo sapiens, TCC-SUP, bladder
Method: as §1, §2

TE14 = conditions: TE14, esophagus
Method: as §1, §2

UBLC1 = conditions: UBLC1, bladder
Method: as §1, §2

VMRCRCW = conditions: kidney
Method: as §1, §2

VMRCRCZ = conditions: kidney
Method: as §1, §2

Row | SMILES | IC50 (A2780) | IC50 (BT474) | IC50 (CAOV3) | IC50 (CAPAN2) | IC50 (CCK81) | IC50 (CFPAC1) | IC50 (CHAGOK1) | IC50 (COV504) | IC50 (G292CLONEA141B1) | IC50 (HBCx13B) | IC50 (HBCx6) | IC50 (HBCx9) | IC50 (HEC151) | IC50 (HMC18) | IC50 (HS934T) | IC50 (HSC3) | IC50 (JHOS2) | activity as single agents (JHOS2) | IC50 (KALS1) | IC50 (OE19) | other results
1 | COc1ncnc(C2CC2)c1-c1ncc2cnn(Cc3ccc(-c4nc(C(F)(F)F)cn4C)cc3)c2n1 [Formula II, 6-(4-cyclopropyl-6-methoxypyrimidin-5-yl)-1-(4-(1-methyl-4-(trifluoromethyl)-1H-imidazol-2-yl)benzyl)-1H-pyrazolo[3,4-d]pyrimidine] | > 0.3 µM | > 0.3 µM | 0.0278 µM | > 0.3 µM | > 0.3 µM | > 0.3 µM | > 0.3 µM | 0.00663 µM | > 0.3 µM | > 0.3 µM | > 0.3 µM | > 0.3 µM | > 0.3 µM | > 0.3 µM | > 0.3 µM | > 0.3 µM | > 0.3 µM | little to no activity | > 0.3 µM | > 0.3 µM | IC50 (OV56): > 0.3 µM; IC50 (OVA2BUR): > 0.3 µM; IC50 (SCC15): 0.028 µM; IC50 (SJSA1): > 0.3 µM; IC50 (SKMEL24): > 0.3 µM; IC50 (SNU1076): > 0.3 µM; IC50 (SNU119): > 0.3 µM; IC50 (SNU407): > 0.3 µM; IC50 (SNU626): > 0.3 µM; IC50 (SNU81): 0.0102 µM; IC50 (SUIT2): > 0.3 µM; IC50 (SUM149PT): > 0.3 µM; IC50 (SW948): > 0.3 µM; IC50 (T174): > 0.3 µM; IC50 (TCCSUP): > 0.3 µM; IC50 (TE14): > 0.3 µM; IC50 (UBLC1): > 0.3 µM; IC50 (VMRCRCW): > 0.3 µM; IC50 (VMRCRCZ): > 0.3 µM
2 | NC(=O)c1cccc2cn(-c3ccc([C@@H]4CCCNC4)cc3)nc12 [Niraparib, niraparib, reference compound] | > 0.3 µM | > 0.3 µM | 0.241 µM | > 0.3 µM | > 0.3 µM | > 0.3 µM | > 0.3 µM | 0.00417 µM | > 0.3 µM | > 0.3 µM | 0.0304 µM | 0.0558 µM | > 0.3 µM | > 0.3 µM | > 0.3 µM | > 0.3 µM | > 0.3 µM | little to no activity | > 0.3 µM | > 0.3 µM | IC50 (OV56): > 0.3 µM; IC50 (OVA2BUR): > 0.3 µM; IC50 (SCC15): > 0.3 µM; IC50 (SJSA1): > 0.3 µM; IC50 (SKMEL24): > 0.3 µM; IC50 (SNU1076): > 0.3 µM; IC50 (SNU119): 0.039 µM; IC50 (SNU407): 0.0728 µM; IC50 (SNU626): > 0.3 µM; IC50 (SNU81): 0.0186 µM; IC50 (SUIT2): > 0.3 µM; IC50 (SUM149PT): 0.135 µM; IC50 (SW948): > 0.3 µM; IC50 (T174): > 0.3 µM; IC50 (TCCSUP): > 0.3 µM; IC50 (TE14): > 0.3 µM; IC50 (UBLC1): > 0.3 µM; IC50 (VMRCRCW): > 0.3 µM; IC50 (VMRCRCZ): > 0.3 µM
